According to patent US20050014700A1, “Cbi analogues of cc-1065 and the duocarmycins” (priority 2001, published 2005):
Where two headings read alike, the source gives them in different places.

Experiments:
L1210 [1] = experiment: cellular functional assay for L1210 cytotoxic activity; assay type: cell-based
Experimental: For comparison, the L1210 IC50 for (+)-N-Boc-CBI, which lacks an attached DNA binding domain, is 80 nM (80,000 pM).

[2] = system: w794 duplex DNA (SV40 nucleosomal DNA insert in M13mp10); experiment: DNA alkylation efficiency and selectivity, thermally-induced strand cleavage of 5′ end-labeled duplex DNA (PAGE); assay type: biochemical; settings: for concentration at which DNA alkylation is detectable: 25° C., 24 hours
From the text: The DNA alkylation properties of the compounds including those of CBI-X9-Y9 (24), CBI-X11-Y9 (25) and CBI-X10-Y10 (26) (FIG. 7) were examined within a 150 base-pair segment of duplex DNA and compared with (+)-duocarmycin SA (2), (+)-CBI-CDPI2 (27) and (+)-CBI-indole2 (28). One clone of phage M13mp10 was selected for the study that contained the SV40 nucleosomal DNA insert w794 (nucleotide no. 5238-138) (Ambrose, C., et al., J. Mol. Biol. 1989, 210, 255). The alkylation site identification and the assessment of the relative selectivity among the available sites was obtained by thermally-induced strand cleavage of the singly 5′ end-labeled duplex DNA after exposure to the agents. After treatment of the end-labeled duplex DNA with a range of agent concentrations, the unbound agent was removed by EtOH precipitation of the DNA. Redissolution of the DNA in aqueous buffer, thermolysis (100° C., 30 min) to induce strand cleavage at the sites of DNA alkylation, denaturing high resolution polyacrylamide gel electrophoresis (PAGE) adjacent to Sanger dideoxynucleotide sequencing standards, and autoradiography led to identification of the DNA cleavage and alkylation sites (Boger, D. L., et al., Tetrahedron 1991, 47, 2661).
The preparation of singly ^32P 5′ end-labeled double-stranded DNA, the agent binding studies, gel electrophoresis, and autoradiography were conducted according to procedures described in full detail elsewhere.^28 Eppendorf tubes containing the 5′ end-labeled DNA (9 μL) in TE buffer (10 mM Tris, 1 mM EDTA, pH 7.5) were treated with the agent in DMSO (1 μL at the specified concentration). The solution was mixed by vortexing and brief centrifugation and subsequently incubated at 25° C. for 24 hours. The covalently modified DNA was separated from the unbound agent by EtOH precipitation and resuspended in TE buffer (10 μL). The solution of DNA in an Eppendorf tube sealed with Parafilm was warmed at 100° C. for 30 min to introduce cleavage at the alkylation sites, allowed to cool to 25° C., and centrifuged. Formamide dye (0.03% xylene cyanol FF, 0.03% bromophenol blue, 8.7% Na2EDTA 250 mM) was added (5 μL) to the supernatant. Prior to electrophoresis, the sample was denatured by warming at 100° C. for 5 min, placed in an ice bath, and centrifuged, and the supernatant (3 μL) was loaded directly onto the gel. Sanger dideoxynucleotide sequencing reactions were run as standards adjacent to the reaction samples. Polyacrylamide gel electrophoresis (PAGE) was run on an 8% sequencing gel under denaturing conditions (8 M urea) in TBE buffer (100 mM Tris, 100 mM boric acid, 0.2 mM Na2EDTA) followed by autoradiography.

[3] = system: w794 duplex DNA (SV40 nucleosomal DNA insert in M13mp10); settings: cited from earlier work; for DNA alkylation efficiency compared to parent (+)-CBI-CDPI (21) / DNA alkylation selectivity compared to parent (+)-CBI-CDPI (21): previous study
L1210 [4] = settings: previous study; additional heteroatom in carboxylate bearing aromatic ring; cited from earlier work

1-(Chloromethyl)-5-hydroxy-3-{[3-[4-(tert-Butoxycarbonylamino)-1-methylpyrrol-2-yl)-carbonyl]-1,2-dihydro(3H-pyrrolo[3,2-e]indol)-7-yl)carbonyl}-1,2-dihydrobenzo[e]indole [X11-Y10]
IC50 (L1210 [1]): 5 pM

(+)-CBI-indole2 [compound 28]
alkylation of the minor 5′-ACTAA-3′ site ([2]; w794 DNA): neither 27 or 28 alkylate the minor 5′-ACTAA-3′ site to a significant extent

1-(Chloromethyl)-5-hydroxy-3-{[4-[4-(tert-Butoxycarbonylamino)-1-methylpyrrol-2-yl)carbonyl]amino-1-methylpyrrol-2-yl]carbonyl}-1,2-dihydrobenzo[e]indole [X10-Y10]
IC50 (L1210 [1]): 440 pM
DNA alkylation effectiveness relative to N-Boc-CBI ([2]; comparable reaction conditions): 10-100 fold
lower DNA alkylation efficiency compared to 25 ([2]; w794 DNA): 100-1000 fold
concentration at which DNA alkylation is detectable ([2]; w794 DNA): 10^−3 M

CC(C)(C)OC(=O)Nc1ccc2[nH]c(C(=O)N3CCc4c3ccc3[nH]c(C(=O)N5CC(CCl)c6c5cc(O)c5ccccc65)cc43)cc2c1 (centres unmarked) [X11-Y14, 1-(Chloromethyl)-5-hydroxy-3-{[3-[5-(tert-Butoxycarbonylaminoindole-2-yl)carbonyl]-1,2-dihydro(3H-pyrrolo[3,2-e]indol)-7-yl)carbonyl}-1,2-dihydrobenzo [e]indole]
IC50 (L1210 [1]): 7 pM

CC(C)(C)OC(=O)N1CCc2c1ccc1[nH]c(C(=O)N3CCc4c3ccc3[nH]c(C(=O)N5CC(CCl)c6c5cc(O)c5ccccc65)cc43)cc21 (centres unmarked) [X11-Y11]
IC50 (L1210 [1]): 5 pM

1-(Chloromethyl)-5-hydroxy-3-{[3-[2-(tert-Butoxycarbonylamino-1,3-thiazol-4-yl) carbonyl]-1,2-dihydro(3H-pyrrolo[3,2-e]indol)-7-yl)carbonyl}-1,2-dihydrobenzo[e]indole [X11-Y7]
IC50 (L1210 [1]): 5 pM

NC(=O)N1CCc2c1ccc1[nH]c(C(=O)N3CCc4c3ccc3[nH]c(C(=O)N5C[C@H]6C[C@@]67C5=CC(=O)c5ccccc57)cc43)cc21 [compound 27, (+)-CBI-CDPI2]
alkylation of the minor 5′-ACTAA-3′ site ([2]; w794 DNA): neither 27 or 28 alkylate the minor 5′-ACTAA-3′ site to a significant extent

Cn1cc(NC(=O)OC(C)(C)C)nc1C(=O)Nc1cn(C)c(C(=O)N2CC(CCl)c3c2cc(O)c2ccccc32)n1 (centres unmarked) [compound 24]
concentration at which DNA alkylation is detectable ([2]; w794 DNA): > 10^−3 M

(+)-CBI-CDPI [compound 21]
alkylation of the minor 5′-ACTAA-3′ site ([3]; w794 DNA, prior study): does

CC(C)(C)OC(=O)N1CC2CC23C1=CC(=O)c1ccccc13 (single isomer, unassigned; (+)) [(+)-N-Boc-CBI]
IC50 (L1210 [1]): 80000 pM

(+)-CBI-CDPBI
decrease in cytotoxic activity relative to (+)-CBI-CDPI (21) (L1210 [4]): 40 fold
DNA alkylation efficiency compared to parent (+)-CBI-CDPI (21) [3]: analogous decrease in the DNA alkylation efficiency
DNA alkylation selectivity compared to parent (+)-CBI-CDPI (21) [3]: no alteration in the alkylation selectivity

1-(Chloromethyl)-5-hydroxy-3-{[4-[4-(tert-Butoxycarbonylaminothiophen-2-yl)carbonyl]aminothiophen-2-yl]carbonyl}-1,2-dihydrobenzo[e]indole [X8-Y8]
IC50 (L1210 [1]): 290 pM

(+)-CBI-CDPBO
decrease in cytotoxic activity relative to (+)-CBI-CDPI (21) (L1210 [4]): 40 fold
DNA alkylation efficiency compared to parent (+)-CBI-CDPI (21) [3]: analogous decrease in the DNA alkylation efficiency
DNA alkylation selectivity compared to parent (+)-CBI-CDPI (21) [3]: no alteration in the alkylation selectivity
